Test results taken from the supplement of paper PMC10307832.

Experiments:
Assay in all cases: relative viability (nuclei count vs DMSO), 5 days (fraction); higher = more cells survive
[1] = compound: CC1=NC=CC(=C1)C2=CC=C(C=C2)CC(=O)NC3=CC=C(C=C3)C4=CN=CC=C4 [Wnt-C59] + Cc1nc(NC(=O)N2CCC[C@H]2C(N)=O)sc1-c1ccnc(C(C)(C)C(F)(F)F)c1 [Alpelisib] (partner 2 µM)
Procedure, shortened: (§1)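 Lung cancer cell lines were pin-tool dosed in 1536-well plates on the day after seeding, with either a lone drug or a fixed anchor-drug dose plus five library-drug doses (not always all listed) in √10 steps. Nuclei were counted on 4× images after 5 days. Relative viability is the ratio of treated-well to vehicle-well nuclei counts, with each value a median of duplicate plates.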

[2] = compound: CC1=NC=CC(=C1)C2=CC=C(C=C2)CC(=O)NC3=CC=C(C=C3)C4=CN=CC=C4 [Wnt-C59] + CS(=O)(=O)N1CCN(Cc2cc3nc(-c4cccc5[nH]ncc45)nc(N4CCOCC4)c3s2)CC1 [Pictilisib] (partner 1 µM)
Procedure, shortened: as §1

[3] = compound: CC1=NC=CC(=C1)C2=CC=C(C=C2)CC(=O)NC3=CC=C(C=C3)C4=CN=CC=C4 [Wnt-C59] + Cc1cc(Nc2cc(N3CCN(C)CC3)nc(Sc3ccc(NC(=O)C4CC4)cc3)n2)n[nH]1 [Tozasertib] (partner 0.1 µM)
Procedure, shortened: as §1

[4] = compound: CS(=O)(=O)CCNCc1ccc(-c2ccc3ncnc(Nc4ccc(OCc5cccc(F)c5)c(Cl)c4)c3c2)o1 [Lapatinib] + CC(=O)Nc1cccc(-n2c(=O)n(C3CC3)c(=O)c3c(Nc4ccc(I)cc4F)n(C)c(=O)c(C)c32)c1 [Trametinib] (partner 0.02 µM)
Procedure, shortened: as §1

| Cell Line | relative viability ([1]; first compound 0.001 µM) | relative viability ([1]; first compound 0.01 µM) | relative viability ([1]; first compound 0.03162 µM) | relative viability ([1]; first compound 0.1 µM) | relative viability ([2]; first compound 0.001 µM) | relative viability ([2]; first compound 0.01 µM) | relative viability ([2]; first compound 0.03162 µM) | relative viability ([2]; first compound 0.1 µM) | relative viability ([3]; first compound 0.001 µM) | relative viability ([3]; first compound 0.01 µM) | relative viability ([3]; first compound 0.03162 µM) | relative viability ([3]; first compound 0.1 µM) | relative viability ([4]; first compound 0.02 µM) | relative viability ([4]; first compound 0.06325 µM) | relative viability ([4]; first compound 0.2 µM) | relative viability ([4]; first compound 0.6325 µM) | relative viability ([4]; first compound 2 µM) |
| --- | --- | --- | --- | --- | --- | --- | --- | --- | --- | --- | --- | --- | --- | --- | --- | --- | --- |
| SK-LU-1 | 0.996 | 0.992 | 1.08 | 1.05 | 0.476 | 0.558 | 0.638 | 0.559 | 0.317 | 0.323 | 0.331 | 0.295 | 0.377 | 0.43 | 0.439 | 0.557 | 0.507 |
| SK-MES-1 | 0.841 | 0.909 | 0.833 | 0.965 | 0.392 | 0.368 | 0.305 | 0.322 | 0.94 | 0.913 | 0.944 | 0.824 | 0.512 | 0.446 | 0.425 | 0.339 | 0.275 |
| SW 1573 | 0.701 | 0.758 | 0.89 | 0.79 | 0.452 | 0.544 | 0.563 | 0.404 | 0.144 | 0.196 | 0.342 | 0.167 | – | 0.577 | 0.527 | 0.606 | 0.515 |
